Measured values from patent publication US20060188937A1, “G-protein estrogen membrane receptor” (Board Of Regents, The University Of Texas System, priority 2004, published 2006).
“Also recorded” adds a separate entry of the source.

Legend:
SKBR3 cells [1] = settings: cited from earlier work
[2] = system: untransfected HEK293 cells; assay: cAMP measurement, untransfected HEK293 cells; format: biochemical, human; settings: 15 min treatment with 200 nm
[3] = system: untransfected HEK293 cells; assay: [35S]GTPγS binding to membranes of untransfected HEK293 cells; format: biochemical, human; settings: 100 nm
Description: [^35S]GTPγ-S binding to cell membranes. Binding of [^35S]GTPγ-S to plasma membranes (˜10 μg protein) was assayed following the procedure of Liu and Dillon (30) with few modifications. Plasma membranes were incubated with 10 μM GDP and 0.5 nm [^35S]GTPγ-S (˜12,000 cpm, 1.0 Ci/mol) in […] Tris buffer ([…], 5 mM MgCl2, 1 mM CaCl2, 0.6 mM EDTA, 0.1% BSA, 50 mM Tris-HCl, pH 7.4) at 25° C. for 30 min in the presence of 100 nm of the test compounds. Nonspecific binding was determined by addition of 100 μM GTPγ-S. At the end of the incubation period 100 μl aliquots were filtered through Whatman GF/B glass fiber filters, followed by several washes and subsequent scintillation counting.

SKBR3 cells [4] = assay: Hormone pretreatment of SKBR3 cells, E2 receptor binding to plasma membranes; format: cell-based, human; settings: 200 nm for 16 hrs in FBS-free media
GPR30 [5] = biological target: T1, GPR30 (Homo sapiens, UniProt Q99527); assay: cAMP measurement (adenylyl cyclase activity), HEK293 cells transfected with GPR30; format: biochemical; settings: for cAMP production / activation of stimulatory G-protein and upregulation of adenylyl cyclase activity: transfected cells; for cAMP production: FIG. 3F, 100 nm, 20 min; for activation of stimulatory G-protein and upregulation of adenylyl cyclase activity: discussion summary
wild-type GPR30 = biological target: T2, wild-type GPR30 (Homo sapiens, UniProt Q99527); assay: [35S]GTPγS binding to membranes of SKBR3 cells; format: biochemical; settings: for agonist action on GPR30 / mER-mediated pathway: summary statements; for specific [35S]GTPγS binding (activation of G-proteins): 100 nm, SKBR3 cell membranes
T2 construct: membranes of SKBR3 cells expressing wild-type GPR30; endogenous in cells; host or cells: SKBR3 (human breast cancer cells, ATCC)
Description: [^35S]GTPγ-S binding to cell membranes. Binding of [^35S]GTPγ-S to plasma membranes (˜10 μg protein) was assayed following the procedure of Liu and Dillon (30) with few modifications. […] Nonspecific binding was determined by addition of 100 μM GTPγ-S. At the end of the incubation period 100 μl aliquots were filtered through Whatman GF/B glass fiber filters, followed by several washes and subsequent scintillation counting.

GPR30 [6] = biological target: T1, GPR30; assay: Competitive binding against [3H]E2, plasma membranes of HEK293 cells transfected with GPR30
GPR30 [7] = biological target: T1, GPR30; settings: for binding affinities to the receptor: summary statement; for affinity for the receptor in competitive binding: concentrations up to 1 μM

T1 sequence (Q99527 whole entry): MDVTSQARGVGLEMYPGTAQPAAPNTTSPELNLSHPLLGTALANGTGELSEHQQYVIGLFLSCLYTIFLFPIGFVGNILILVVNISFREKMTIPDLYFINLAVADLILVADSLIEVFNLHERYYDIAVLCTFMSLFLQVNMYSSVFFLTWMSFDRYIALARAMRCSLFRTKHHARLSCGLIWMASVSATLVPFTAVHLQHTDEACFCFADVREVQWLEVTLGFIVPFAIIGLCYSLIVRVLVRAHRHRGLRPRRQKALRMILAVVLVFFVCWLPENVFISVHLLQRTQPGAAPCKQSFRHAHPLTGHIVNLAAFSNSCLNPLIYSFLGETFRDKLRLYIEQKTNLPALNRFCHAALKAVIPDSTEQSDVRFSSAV
T2 sequence (Q99527 whole entry): as above

C[C@]12CC[C@@H]3c4ccc(O)cc4CC[C@H]3[C@@H]1CC[C@@H]2O [E2, 17β-estradiol]
effective concentration (cAMP) previously shown (SKBR3 cells [1]): 1 nm
adenylyl cyclase activity, increase in cAMP content [2]: not in untransfected cells
specific [35S]GTPγS binding [3]: not to membranes of untransfected cells
increase in receptor binding (SKBR3 cells [4]): 2.5 fold

C[C@]12CC[C@@H]3c4ccc(O)cc4C[C@@H](CCCCCCCCC[S+]([O-])CCCC(F)(F)C(F)(F)F)[C@H]3[C@@H]1CC[C@@H]2O (stereo partly shown) [ICI 182, 780]
adenylyl cyclase activity, increase in cAMP content (GPR30 [5]; transfected HEK293 cells, 15 min treatment with 200 nm): significantly increased
cAMP production (GPR30 [5]): significantly increased cAMP
agonist action on GPR30 / mER-mediated pathway (wild-type GPR30): estrogen agonists
agonist action on GPR30 / mER-mediated pathway (wild-type GPR30; listed as ICI 182,780): mimic the actions of E2
adenylyl cyclase activity, increase in cAMP content [2]: not in untransfected cells
binding affinity in competitive binding (GPR30 [6]): significant binding affinity
relative binding affinity (RBA), % that of E2 (GPR30 [7]; SKBR3 membranes): approximately 10%
decrease in RBA to GPR30 versus estradiol-17β (GPR30 [7]; discussion summary): only minor decreases
binding affinities to the receptor (GPR30 [7]): high binding affinities

CC(=O)[C@H]1CC[C@H]2[C@@H]3CCC4=CC(=O)CC[C@]4(C)[C@H]3CC[C@]12C [P4, progesterone]
affinity for the receptor in competitive binding (GPR30 [7]; SKBR3 membranes): no affinity
increase in receptor binding (SKBR3 cells [4]): 9 fold

C[C@]12CCC(=O)C=C1CC[C@@H]1[C@@H]2[C@@H](O)C[C@@]2(C)[C@H]1CC[C@]2(O)C(=O)CO [cortisol]
affinity for the receptor in competitive binding (GPR30 [7]; SKBR3 membranes): no affinity

CC/C(=C(/CC)c1ccc(O)cc1)c1ccc(O)cc1 [diethystilbestrol, diethylstilbestrol]
displacement of [3H]E2 (GPR30 [6]; concentrations up to 10 μM): failed to significantly displace

C[C@]12CC[C@@H]3c4ccc(O)cc4CC[C@H]3[C@@H]1C[C@@H](O)[C@@H]2O [estriol]
cAMP production (GPR30 [5]): did not alter cAMP production
activation of stimulatory G-protein and upregulation of adenylyl cyclase activity (GPR30 [5]): inactive
specific [35S]GTPγS binding (activation of G-proteins) (wild-type GPR30): failed to activate the G-proteins

C[C@]12CC[C@@H]3c4ccc(O)cc4CC[C@H]3[C@@H]1CCC2=O [estrone]
activation of stimulatory G-protein and upregulation of adenylyl cyclase activity (GPR30 [5]): inactive

ClC(Cl)=C(c1ccc(Cl)cc1)c1ccccc1Cl [o,p′-DDE]
cAMP production (GPR30 [5]): significantly increased cAMP
specific [35S]GTPγS binding (activation of G-proteins) (wild-type GPR30): significantly increased
agonist action on GPR30 / mER-mediated pathway (wild-type GPR30): agonist; also recorded: mimic the actions of E2
binding affinity in competitive binding (GPR30 [6]): significant binding affinity
displacement of [3H]-E2 binding (GPR30 [7]; SKBR3 membranes, concentrations 0.1-1 μM): significant displacement
binding affinities to the receptor (GPR30 [7]): high binding affinities

CC/C(=C(\c1ccccc1)c1ccc(OCCN(C)C)cc1)c1ccccc1 [tamoxifen]
cAMP production (GPR30 [5]): significantly increased cAMP
specific [35S]GTPγS binding (activation of G-proteins) (wild-type GPR30): significantly increased
agonist action on GPR30 / mER-mediated pathway (wild-type GPR30): estrogen agonists; also recorded: mimic the actions of E2
binding affinity in competitive binding (GPR30 [6]): significant binding affinity

C[C@]12CC[C@H]3[C@@H](CCC4=CC(=O)CC[C@@]43C)[C@@H]1CC[C@@H]2O [testosterone]
affinity for the receptor in competitive binding (GPR30 [7]; SKBR3 membranes): no affinity

C[C@H]1CCCC(=O)CCC/C=C/c2cc(O)cc(O)c2C(=O)O1 [zearalonone, zearalenone]
binding affinity in competitive binding (GPR30 [6]): significant binding affinity

cholera toxin
effect on estrogen-induced increase in cAMP concentrations (GPR30 [5]): blocked
